Experiments:
CD4+/CD25+/FoxP3+ cells = assay: FITC-PIF binding to regulatory T-cells, two- and three-color flow cytometry; format: cell-based, human; conditions: 0-100 uM FITC-labelled peptide
Lymphocytes = assay: FITC-PIF binding to mare immune cells, flow cytometry: lymphocytes; format: cell-based
Excerpt: (§1) Method: whole blood was collected from jugular vein of pregnant (n=4) and non-pregnant (n=8) mares into lithium heparin vacutainers. Whole blood was layered over histopaque (Sigma) density gradient and red cells were allowed to settle through the gradient, leaving a leukocyte-rich plasma layer above. Cells were washed twice in sterile PBS and any remaining RBCs lysed with 0.16 M ammonium chloride solution. […] Cell types were separated based upon their scatter characteristics. […] FIG. 20 and Table 20 show mean+/−SEM in both pregnant and non-pregnant mares, and depicts binding characteristics showing significant differences between FITC-PIF and control, P<0.001.

Granulocytes = assay: FITC-PIF binding to mare immune cells, flow cytometry: granulocytes; format: cell-based
Excerpt: as §1

Monocytes = assay: FITC-PIF binding to mare immune cells, flow cytometry: monocytes; format: cell-based
Excerpt: as §1

[1] = Non-pregnant mares, 1 ug/ml FITC-labelled peptide (n = 8)
[2] = Non-pregnant mares, 5 ug/ml FITC-labelled peptide (n = 8)
[3] = Non-pregnant mares, 10 ug/ml FITC-labelled peptide (n = 7)
[4] = Pregnant mares, 1 ug/ml FITC-labelled peptide (n = 4)
[5] = Pregnant mares, 5 ug/ml FITC-labelled peptide (n = 4)
[6] = Pregnant mares, 10 ug/ml FITC-labelled peptide (n = 4)

GRVDPSNKSMPKDIA (scrPIF-1 (15)) [PIFscr, control]
binding to CD4+/CD25+/FoxP3+ cells (CD4+/CD25+/FoxP3+ cells): minimal binding
binding to Lymphocytes, Mean (Lymphocytes; [1]): 0.27
binding to Lymphocytes, Mean (Lymphocytes; [2]): 1.08
binding to Lymphocytes, Mean (Lymphocytes; [3]): 2.04
binding to Lymphocytes, Mean (Lymphocytes; [4]): 0.12
binding to Lymphocytes, Mean (Lymphocytes; [5]): 0.78
binding to Lymphocytes, Mean (Lymphocytes; [6]): 2.84
binding to Granulocytes, Mean (Granulocytes; [1]): 0.26
binding to Granulocytes, Mean (Granulocytes; [2]): 1.78
binding to Granulocytes, Mean (Granulocytes; [3]): 3.89
binding to Granulocytes, Mean (Granulocytes; [4]): 0.09
binding to Granulocytes, Mean (Granulocytes; [5]): 0.93
binding to Granulocytes, Mean (Granulocytes; [6]): 4.51
binding to Monocytes, Mean (Monocytes; [1]): 1.10
binding to Monocytes, Mean (Monocytes; [2]): 5.20
binding to Monocytes, Mean (Monocytes; [3]): 12.39
binding to Monocytes, Mean (Monocytes; [4]): 0.78
binding to Monocytes, Mean (Monocytes; [5]): 6.36
binding to Monocytes, Mean (Monocytes; [6]): 31.07
